Target: T1, WIZ (Homo sapiens, UniProt O95785+Q96SW2)
T1 construct: expressed in transfected cells
Experiment: Quantification of WIZ protein levels in HiBit tag fusion protein assay (WIZ HiBit assay in 293T cells)
Format: cell-based
Details: for Dmax at 25 µM / remaining activity at 25 µM: HEK-293T; for Dmax at 25 µM / % degradation of WIZ (100-Amax): 100 minus Amax at 25 uM; for Dmax at 25 µM: read-out: % degradation of WIZ (100-Amax); for remaining activity at 25 µM / WIZ Amax: DMSO-normalized, curve-fitted percentage of WIZ-HiBit remaining at 25 uM; for remaining activity at 25 µM: read-out: WIZ Amax; for DC50: WIZ HiBit assay in 293T cells, 10-point, 5-fold dilution, highest concentration 25 μM, about 18 hours, read-out: WIZ AC50
Procedure: The HiBit system from Promega was used to develop high-throughput and quantitative assays to measure changes in WIZ protein levels in response to compounds. The HiBit tag was derived from a split Nanoluciferase and has the following protein sequence: […] (SEQ ID NO: 1). The complementary fragment of Nanoluciferase (known as LgBit, from Promega), was added to the HiBit tag to form an active Nanoluciferase enzyme whose activity can be precisely measured. In this way, the levels of a fusion protein with the HiBit tag can be quantified in cell lysates.
Lentiviral vectors, based on the Invitrogen™ pLenti6.2/V5 DEST backbone were constructed that places the HiBit tag upstream of WIZ and expressed the fusion protein from an HSVTK promotor.
To ensure moderate and consistent expression of the HiBit-WIZ fusion protein across all cells in the population, stable cell lines were constructed from cells harboring a single copy of the construct. Lentivirus packaged with the constructs were made using the ViraPower™kit from Invitrogen™. 293T cells from ATCC (Catalog number: CRL-3216), were infected with the virus at low multiplicity of infection and selected by 5 μg/mL blasticidin in culture media for 2 weeks.
The levels of HiBit-WIZ tagged fusion proteins in compound-treated cell lines were measured as follows:
On day 1, cells were diluted to 1.0×10^6 cells/ml in normal growth medium. 20 μL of cell suspension were plated in each well of a solid white 384-well plate. Plates were incubated overnight in a 37° C. and 5% CO2 humidified tissue culture incubator.
On day 2, serial dilutions of compounds were made in 384-well plates. Compound plates were set up with DMSO in columns 1, 2, 23, 24, and 10-point compound dilution series in column 3-12 and column 13-22. 10 mM stock solution of compound were placed into column 3 or 13 and a 1:5 serial dilution was carried out until there was a 10-point dilution series per compound. 50 nL of diluted compounds were transferred into the plated cells by Echo® (Labcyte) acoustic transfer. The highest concentration of compound was 25 μM. Plates were incubated overnight (about 18 hours) in a 37° C. and 5% CO2 humidified tissue culture incubator.
On day 3, plates were removed from the incubator and allowed to equilibrate at room temperature for 60 minutes. HiBit substrate (Nano-Glo® HiBit Lytic Detection System, Promega Catalogue number: N3050) was added as described by the manufacturers protocols. Plates were incubated at room temperature for 30 minutes and luminescence was read using an EnVision® reader (PerkinElmer®). Data was analyzed and visualized using the Spotfire® software package.
WIZ Amax reflects the DMSO-normalized, curve-fitted percentage of WIZ-HiBit remaining at 25 uM. It was calculated by normalizing DMSO controls to 100%, parametric curve fitting of the dose response data (10-point, 5-fold), followed by calculation of response at 25 uM using the fitted equation (nd=not determined).

T1 sequence (O95785 whole entry): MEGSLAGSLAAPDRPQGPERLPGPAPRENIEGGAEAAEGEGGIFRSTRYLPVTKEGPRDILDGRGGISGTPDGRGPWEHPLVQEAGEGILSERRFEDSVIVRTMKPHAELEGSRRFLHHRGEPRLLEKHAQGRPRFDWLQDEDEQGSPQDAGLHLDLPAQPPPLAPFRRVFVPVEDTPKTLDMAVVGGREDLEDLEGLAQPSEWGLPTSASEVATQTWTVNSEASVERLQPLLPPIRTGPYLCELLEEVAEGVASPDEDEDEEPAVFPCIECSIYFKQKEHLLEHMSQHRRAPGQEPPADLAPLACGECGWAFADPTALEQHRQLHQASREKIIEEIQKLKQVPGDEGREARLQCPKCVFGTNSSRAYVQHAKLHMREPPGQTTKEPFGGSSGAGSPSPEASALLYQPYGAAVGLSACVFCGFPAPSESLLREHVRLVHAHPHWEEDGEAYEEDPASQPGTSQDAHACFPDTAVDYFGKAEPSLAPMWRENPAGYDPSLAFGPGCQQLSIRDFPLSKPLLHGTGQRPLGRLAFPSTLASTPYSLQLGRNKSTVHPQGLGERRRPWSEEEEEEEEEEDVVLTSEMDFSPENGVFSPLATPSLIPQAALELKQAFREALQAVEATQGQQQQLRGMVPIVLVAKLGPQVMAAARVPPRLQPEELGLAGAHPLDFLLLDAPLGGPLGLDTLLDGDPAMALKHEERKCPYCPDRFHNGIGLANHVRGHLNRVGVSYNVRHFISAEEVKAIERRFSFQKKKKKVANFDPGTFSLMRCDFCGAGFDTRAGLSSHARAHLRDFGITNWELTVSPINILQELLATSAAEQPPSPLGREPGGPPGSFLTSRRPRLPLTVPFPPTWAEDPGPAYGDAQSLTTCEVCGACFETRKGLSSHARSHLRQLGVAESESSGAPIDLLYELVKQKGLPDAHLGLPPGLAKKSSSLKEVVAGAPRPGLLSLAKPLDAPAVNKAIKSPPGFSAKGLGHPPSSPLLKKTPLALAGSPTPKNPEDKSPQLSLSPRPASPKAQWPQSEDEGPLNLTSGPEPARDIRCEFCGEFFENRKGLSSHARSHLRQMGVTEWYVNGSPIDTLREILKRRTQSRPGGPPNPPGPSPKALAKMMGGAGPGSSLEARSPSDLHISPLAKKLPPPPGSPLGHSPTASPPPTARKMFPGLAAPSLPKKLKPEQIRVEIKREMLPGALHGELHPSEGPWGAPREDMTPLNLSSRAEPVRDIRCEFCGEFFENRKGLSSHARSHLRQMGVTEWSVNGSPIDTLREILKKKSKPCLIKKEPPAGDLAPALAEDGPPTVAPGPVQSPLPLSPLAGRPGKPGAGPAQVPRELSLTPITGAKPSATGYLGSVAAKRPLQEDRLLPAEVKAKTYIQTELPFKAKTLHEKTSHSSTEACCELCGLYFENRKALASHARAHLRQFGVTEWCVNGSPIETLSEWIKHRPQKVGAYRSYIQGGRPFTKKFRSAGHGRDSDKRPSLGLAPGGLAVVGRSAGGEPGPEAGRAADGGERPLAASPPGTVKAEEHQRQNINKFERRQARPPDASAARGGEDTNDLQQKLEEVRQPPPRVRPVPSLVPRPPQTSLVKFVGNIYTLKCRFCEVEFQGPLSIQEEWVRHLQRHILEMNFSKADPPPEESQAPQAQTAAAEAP
T1 sequence (Q96SW2 whole entry): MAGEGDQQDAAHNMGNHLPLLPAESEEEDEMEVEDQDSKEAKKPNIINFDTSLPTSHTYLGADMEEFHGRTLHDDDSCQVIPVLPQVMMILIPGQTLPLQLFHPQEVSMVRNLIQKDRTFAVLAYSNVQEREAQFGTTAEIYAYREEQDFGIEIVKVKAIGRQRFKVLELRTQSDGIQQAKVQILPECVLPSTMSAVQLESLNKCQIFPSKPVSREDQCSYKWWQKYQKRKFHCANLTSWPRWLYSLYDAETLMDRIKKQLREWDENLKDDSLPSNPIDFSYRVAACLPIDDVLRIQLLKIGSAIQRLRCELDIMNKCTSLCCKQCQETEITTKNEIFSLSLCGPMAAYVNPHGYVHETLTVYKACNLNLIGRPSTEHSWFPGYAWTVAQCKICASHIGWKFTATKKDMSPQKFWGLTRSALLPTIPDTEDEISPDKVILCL
T1 sequence (Q16531 whole entry partner): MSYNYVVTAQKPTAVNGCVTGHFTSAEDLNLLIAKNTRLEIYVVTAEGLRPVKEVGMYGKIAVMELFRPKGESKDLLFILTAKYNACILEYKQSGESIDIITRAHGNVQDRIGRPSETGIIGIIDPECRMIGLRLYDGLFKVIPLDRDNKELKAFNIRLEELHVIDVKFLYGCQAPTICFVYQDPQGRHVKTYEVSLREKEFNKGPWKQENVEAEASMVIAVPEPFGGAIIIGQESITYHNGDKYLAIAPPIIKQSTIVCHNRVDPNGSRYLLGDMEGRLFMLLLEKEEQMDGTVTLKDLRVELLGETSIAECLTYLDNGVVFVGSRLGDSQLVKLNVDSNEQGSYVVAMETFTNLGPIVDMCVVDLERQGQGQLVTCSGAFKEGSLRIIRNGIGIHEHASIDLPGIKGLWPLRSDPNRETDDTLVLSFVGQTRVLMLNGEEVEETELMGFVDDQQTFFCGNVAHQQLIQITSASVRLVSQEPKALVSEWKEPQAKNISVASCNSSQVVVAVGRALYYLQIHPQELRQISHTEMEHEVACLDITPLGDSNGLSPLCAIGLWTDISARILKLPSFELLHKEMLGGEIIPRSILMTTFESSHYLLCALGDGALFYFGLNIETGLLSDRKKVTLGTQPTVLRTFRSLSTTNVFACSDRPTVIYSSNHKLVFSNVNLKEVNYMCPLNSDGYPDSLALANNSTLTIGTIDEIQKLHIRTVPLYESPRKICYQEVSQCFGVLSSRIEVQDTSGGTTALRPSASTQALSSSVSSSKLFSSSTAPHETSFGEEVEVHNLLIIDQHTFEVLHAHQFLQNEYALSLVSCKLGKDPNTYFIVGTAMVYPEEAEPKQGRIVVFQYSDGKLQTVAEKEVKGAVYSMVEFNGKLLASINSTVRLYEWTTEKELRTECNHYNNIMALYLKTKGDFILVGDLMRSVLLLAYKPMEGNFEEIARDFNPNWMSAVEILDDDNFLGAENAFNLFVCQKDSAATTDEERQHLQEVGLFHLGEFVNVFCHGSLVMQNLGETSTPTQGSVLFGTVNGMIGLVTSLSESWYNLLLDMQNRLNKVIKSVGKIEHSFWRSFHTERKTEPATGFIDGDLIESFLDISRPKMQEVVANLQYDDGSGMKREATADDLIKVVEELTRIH

Row | Compound | Dmax at 25 µM | remaining activity at 25 µM | DC50 | % degradation of WIZ (100-Amax) | WIZ Amax
1 | O=C1CCN(c2noc3ccc(CC4CCN(CC5CCCCC5)C4)cc23)C(=O)N1 (stereo not drawn) [Example 49, 1-(5-((1-(cyclohexylmethyl)pyrrolidin-3-yl)methyl)benzo[d]isoxazol-3-yl)dihydropyrimidine-2,4(1H,3H)-dione] | 87% | 13% | 279 nM |  | 
2 | CN1CCC(Cc2ccc3onc(N4CCC(=O)NC4=O)c3c2)C1 (stereo not drawn) [Example 50, 1-(5-((1-methylpyrrolidin-3-yl)methyl)benzo[d]isoxazol-3-yl)dihydropyrimidine-2,4(1H,3H)-dione] | 78% | 22% | 448 nM |  | 
3 | CC(C)(C)OC(=O)N1CCCC(Cc2ccc3onc(N4CCC(=O)NC4=O)c3c2)CC1 (stereo not drawn) [Example 51, tert-butyl 4-((3-(2,4-dioxotetrahydropyrimidin-1 (2H)-yl)benzo[d]isoxazol-5-yl)methyl)azepane-1-carboxylate] | 87% | 13% | 392 nM |  | 
4 | O=C1CCN(c2noc3ccc(CC4CCCNCC4)cc23)C(=O)N1 (stereo not drawn) [Example 52, 1-(5-(azepan-4-ylmethyl)benzo[d]isoxazol-3-yl)dihydropyrimidine-2,4(1H,3H)-dione] | 86% | 14% | 57 nM |  | 
5 | CN1CCCC(Cc2ccc3onc(N4CCC(=O)NC4=O)c3c2)CC1 (stereo not drawn) [Example 53, 1-(5-((1-methylazepan-4-yl)methyl)benzo[d]isoxazol-3-yl)dihydropyrimidine-2,4(1H,3H)-dione] | 87% | 13% | 4 nM |  | 
6 | O=C1CCN(c2noc3ccc(CC4C[C@H]5CC[C@@H](C4)N5)cc23)C(=O)N1 (stereo partly drawn) [Example 56, 1-(5-(((1R,5S)-8-azabicyclo[3.2.1]octan-3-yl)methyl)benzo[d]isoxazol-3-yl)dihydropyrimidine-2,4(1H,3H)-dione] |  |  | 251 nM | 45% | 55%
7 | O=C1CCN(c2noc3ccc(CC4C[C@H]5CC[C@@H](C4)N5)cc23)C(=O)N1 (stereo partly drawn) [Example 57, 1-(5-(((1R,5S)-8-azabicyclo[3.2.1]octan-3-yl)methyl)benzo[d]isoxazol-3-yl)dihydropyrimidine-2,4(1H,3H)-dione] |  |  | 649 nM | 80% | 20%
8 | CN1[C@@H]2CC[C@H]1CC(Cc1ccc3onc(N4CCC(=O)NC4=O)c3c1)C2 (stereo partly drawn) [Example 58, 1-(5-(((1R,5S)-8-methyl-8-azabicyclo[3.2.1]octan-3-yl)methyl)benzo[d]isoxazol-3-yl)dihydropyrimidine-2,4(1H,3H)-dione] | 89% | 11% | 20 nM |  | 
9 | CN1[C@@H]2CC[C@H]1CC(Cc1ccc3onc(N4CCC(=O)NC4=O)c3c1)C2 (stereo partly drawn) [Example 59, 1-(5-(((1R,5S)-8-methyl-8-azabicyclo[3.2.1]octan-3-yl)methyl)benzo[d]isoxazol-3-yl)dihydropyrimidine-2,4(1H,3H)-dione] |  |  | 25 nM | 84% | 16%
10 | CS(=O)(=O)N1[C@@H]2CC[C@H]1CC(Cc1ccc3onc(N4CCC(=O)NC4=O)c3c1)C2 (stereo partly drawn) [Example 60, 1-(5-(((1R,5S)-8-(methylsulfonyl)-8-azabicyclo[3.2.1]octan-3-yl)methyl)benzo[d]isoxazol-3-yl)dihydropyrimidine-2,4(1H,3H)-dione] | 90% | 10% | 9 nM |  | 
11 | CS(=O)(=O)N1[C@@H]2CC[C@H]1CC(Cc1ccc3onc(N4CCC(=O)NC4=O)c3c1)C2 (stereo partly drawn) [Example 61, 1-(5-(((1R,5S)-8-(methylsulfonyl)-8-azabicyclo[3.2.1]octan-3-yl)methyl)benzo[d]isoxazol-3-yl)dihydropyrimidine-2,4(1H,3H)-dione] |  |  | 26 nM | 85% | 15%
12 | CCN1CCN(Cc2ccc3onc(N4CCC(=O)NC4=O)c3c2)CC1 [Example 62, 1-(5-((4-ethylpiperazin-1-yl)methyl)benzo[d]isoxazol-3-yl)dihydropyrimidine-2,4(1H,3H)-dione] | 89% | 11% | 24 nM |  | 
13 | CN1CCCN(Cc2ccc3onc(N4CCC(=O)NC4=O)c3c2)CC1 [Example 63, 1-(5-((4-methyl-1,4-diazepan-1-yl)methyl)benzo[d]isoxazol-3-yl)dihydropyrimidine-2,4(1H,3H)-dione] | 84% | 16% | 28 nM |  | 
14 | CC(=O)N1CCN(Cc2ccc3onc(N4CCC(=O)NC4=O)c3c2)[C@H](C)C1 [Example 64, (R)-1-(5-((4-acetyl-2-methylpiperazin-1-yl)methyl)benzo[d]isoxazol-3-yl)dihydropyrimidine-2,4(1H,3H)-dione] | 75% | 25% | 229 nM |  | 
15 | CCN1CCN(Cc2ccc3onc(N4CCC(=O)NC4=O)c3c2)[C@H](C)C1 [Example 66, (R)-1-(5-((4-ethyl-2-methylpiperazin-1-yl)methyl)benzo[d]isoxazol-3-yl)dihydropyrimidine-2,4(1H,3H)-dione] | 86% | 14% | 45 nM |  | 
16 | C[C@@H]1CN(CC2CCOCC2)CCN1Cc1ccc2onc(N3CCC(=O)NC3=O)c2c1 [Example 67, (R)-1-(5-((2-methyl-4-((tetrahydro-2H-pyran-4-yl)methyl)piperazin-1-yl)methyl)benzo[d]isoxazol-3-yl)dihydropyrimidine-2,4(1H,3H)-dione] | 89% | 11% | 9 nM |  | 
17 | C[C@@H]1CN(CC2COC2)CCN1Cc1ccc2onc(N3CCC(=O)NC3=O)c2c1 [Example 68, (R)-1-(5-((2-methyl-4-(oxetan-3-ylmethyl)piperazin-1-yl)methyl)benzo[d]isoxazol-3-yl)dihydropyrimidine-2,4(1H,3H)-dione] | 83% | 17% | 40 nM |  | 
18 | CC(C)N1CCN(Cc2ccc3onc(N4CCC(=O)NC4=O)c3c2)[C@H](C)C1 [Example 69, (R)-1-(5-((4-isopropyl-2-methylpiperazin-1-yl)methyl)benzo[d]isoxazol-3-yl)dihydropyrimidine-2,4(1H,3H)-dione] | 83% | 17% | 45 nM |  | 
19 | C[C@@H]1CN(CC(=O)N2CCCCC2)CCN1Cc1ccc2onc(N3CCC(=O)NC3=O)c2c1 [Example 70, (R)-1-(5-((2-methyl-4-(2-oxo-2-(piperidin-1-yl)ethyl)piperazin-1-yl)methyl)benzo[d]isoxazol-3-yl)dihydropyrimidine-2,4(1H,3H)-dione] | 78% | 22% | 300 nM |  | 
20 | C[C@@H]1CN(S(C)(=O)=O)CCN1Cc1ccc2onc(N3CCC(=O)NC3=O)c2c1 [Example 71, (R)-1-(5-((2-methyl-4-(methylsulfonyl)piperazin-1-yl)methyl)benzo[d]isoxazol-3-yl)dihydropyrimidine-2,4(1H,3H)-dione] | 82% | 18% | 34 nM |  | 
21 | CCS(=O)(=O)N1CCN(Cc2ccc3onc(N4CCC(=O)NC4=O)c3c2)[C@H](C)C1 [Example 72, (R)-1-(5-((4-(ethylsulfonyl)-2-methylpiperazin-1-yl)methyl)benzo[d]isoxazol-3-yl)dihydropyrimidine-2,4(1H,3H)-dione] | 81% | 19% | 98 nM |  | 
22 | CC(C)S(=O)(=O)N1CCN(Cc2ccc3onc(N4CCC(=O)NC4=O)c3c2)[C@H](C)C1 [Example 73, (R)-1-(5-((4-(isopropylsulfonyl)-2-methylpiperazin-1-yl)methyl)benzo[d]isoxazol-3-yl)dihydropyrimidine-2,4(1H,3H)-dione] | 83% | 17% | 110 nM |  | 
